Measurements from US10548894B2, “Combination therapy” (Array BioPharma Inc., priority 2013, dated 2020).

Tests used:
[1] = test system: MAPK and PIK3C signaling in COLO 741 cells; assay: Western analysis of phosphorylated MEK1/2, ERK1/2 and AKT; format: cell-based; conditions: for Phosphorylated levels of AKT: 100 nM
Procedure: (§1) FIG. 4—The effect on signaling of combining the Compound of Formula (I) with the FGFR inhibitor Compound H and the FGFR ligand FGF2 in two BRAFV600E mutant melanoma-derived cell lines in vitro. Shown is western analysis of both phosphorylated and total AKT, ERK1/2, and MEK1/2 proteins isolated from (A) […] and (B) SK-MEL-5 cells following treatment with the Compound of Formula (I) (100 nM), FGF2 (100 ng/ml), and Compound H (1 uM). Cells were treated for 2 and 24 hours with agents singly and in combination as discussed in Example 5.
(§2) For Western analysis, cells were plated in 6-well (Costar, catalog number 3506) plates at a density of 5×10^5 cells per well in 2.0 ml of complete culture medium. Twelve to 24 hrs after plating, cells were treated with the various compounds, and in all experiments the Compound of Formula (I), Compound H, and FGF2 were used at final concentrations of 100 nM, 1.0 uM, and 100 ng/ml, respectively. Cells were harvested 2, and 24 hrs following the addition of compound in freshly prepared cell lysis buffer (Cell Signaling Technology Catalog number 9803); supplemented with both phosphatase (PhosStop, Roche Catalog number 04906845001) and protease inhibitors (Roche, catalog number 11697498001). Proteins from cell lysates were separated by electrophoresis though a NuPAGE 4-12% Bis-Tis midi gel (Novex, catalog number WG1402BX10), transferred to nitrocellulose membranes, which were subsequently incubated with antibodies from Cell Signaling Technology (Danvers, Mass., USA) recognizing p-AKT (S473, Catalog number 4058), total AKT (Catalog number 2920), p-ERK1/2 (T202/Y204, catalog number 9101), total ERK1/2 (catalog number 9107), p-MEK1/2 (S217/221, catalog number 9121) and β-actin (Ambion, catalog number AM4302). Western blots were visualized following incubation with IRDye 680RD Goat anti-Rabbit IgG (Li-Cor, Catalog number 926-68071) and IRDye 800 CW Goat anti-Mouse IgG (Li-Cor, Catalog number 926-32210) and scanning with an Odyssey Infrared Imager System (Li-Cor, Lincoln, Nebr., USA).
(§3) To investigate whether either restored MAPK or activated PIK3C signaling might underlie FGF2-mediated rescue the effects of FGF2 on MAPK and PIK3C signaling were examined via western-blot analysis of phosphorylated MEK1/2 (MAP2K1/2), ERK1/2 (MAPK1/2) and AKT1/2/3.

[2] = test system: MAPK and PIK3C signaling in SK-MEL-5 cells; assay: as above; format: cell-based
Procedure: as §1, §2, §3

[3] = test system: HMEX1906 primary melanoma model (HMEX1906-R5); assay: Efficacy in HMEX1906-R5 primary melanoma model resistant to Compound of Formula (I); format: in vivo; conditions: PO; Compound C 250 mg/kg qd×21; Compound of Formula (I) 5 mg/kg bid×21
Procedure: Objective: To evaluate the efficacy of the combination of the Compound of Formula (I) and the CDK 4 inhibitor Compound C in the HMEX1906 primary melanoma model that is grown in the presence of and is resistant to 5 mg/kg the Compound of Formula (I) (HMEX1906-R5)
Drug formulation: Compound C is formulated in 0.5% MC/0.5% Tween80 and the Compound of Formula (I) is formulated in 20% PEG300/3% ETPGS.
Tumors are chopped/minced into cell line like suspension (tumors homogenized). 7 mL of matrigel added and 1.5 mL of HBSS. Suspension warmed in palm until Matrigel is thick and implanted with a 18G needle s.c right flank of female nude mice.
The mice were assigned to the following groups at 18 days post implant with an average tumor volume of 266 mm^3 and average body weight of 25 grams.
Groups: 10 mice/group, route PO, dose volume 0.2 mL
Group 1: Vehicle, 0 mg/kg bid×14
Group 2: Compound C, 250 mg/kg qd×21
Group 3: Compound of Formula (I), 5 mg/kg bid×21
Group 4: Compound C 250 mg/kg qd×21+Compound of Formula (I) 5 mg/kg bid×21

SMILES: COC(=O)N[C@@H](C)CNc1nccc(-c2cn(C(C)C)nc2-c2cc(Cl)cc(NS(C)(=O)=O)c2F)n1 [Compound of Formula (I)]
- MAPK signaling (phosphorylated MEK and ERK levels) ([1]; COLO 741, 2 and 24 hours, no FGF2, Formula (I) 100 nM, Compound H 1.0 uM): marked suppression of MAPK signaling
- Phosphorylated levels of AKT ([1]; COLO 741, 2 hours): unaffected
- Phosphorylated levels of AKT ([1]; COLO 741, 24 hrs): modest decreases
- levels of phosphorylated MEK and ERK ([1]; COLO 741, with FGF2 100 ng/ml, 24 hrs): largely, although not completely, restored
- changes in signaling relative to Compound of Formula (I) alone ([1]; COLO 741, with FGF2 100 ng/ml, two hours): minimal changes
- MAPK signaling (phosphorylated MEK and ERK levels) ([2]; SK-MEL-5, 2 and 24 hours, no FGF2, Formula (I) 100 nM, Compound H 1.0 uM): marked suppression of MAPK signaling
- Phosphorylated levels of AKT ([2]; SK-MEL-5, 2 hours, 100 nM): unaffected
- levels of phosphorylated MEK and ERK ([2]; SK-MEL-5, with FGF2 100 ng/ml, 24 hrs): largely, although not completely, restored
- changes in signaling relative to Compound of Formula (I) alone ([2]; SK-MEL-5, with FGF2 100 ng/ml, two hours): minimal changes
- Mean change of body weight [3]: 3.5 ± 1.1 % ± SEM
- Mean change of tumor volume [3]: 807 ± 106 mm3 ± SEM
- Mean change of tumor volume vs control (T/C) [3]: 39%
- Survival (Survivors/Total) [3]: 10/10
